Experimental data as given in ChEMBL document CHEMBL1123386, “Substituted-vinyl hydroxytriarylethylenes, 1-[4-[2-(diethylamino) ethoxy]phenyl]-1-(4-hydroxyphenyl)-2-phenylethylenes: synthesis and effects on MCF 7 breast cancer cell proliferation” (J Med Chem, 1986).

Each molecule was assayed on MCF7 (assay: Compound was tested for binding affinity against nuclear ER in MCF-7 cell extracts).
Assay type: functional, cell-based, Homo sapiens

Compared with `CC/C(=C(\c1ccc(O)cc1)c1ccc(OCCN(CC)CC)cc1)c1ccccc1`, `CCN(CC)CCOc1ccc(/C(=C(/Cl)c2ccccc2)c2ccc(O)cc2)cc1` [4-OH-ENCLOMIPHENE] is 2.6-fold lower in Kd: 290 pM for the first, 110 pM for the second.

First: CCN(CC)CCOc1ccc(/C(=C\c2ccccc2)c2ccc(O)cc2)cc1
Second: CCN(CC)CCOc1ccc(/C(=C(/Br)c2ccccc2)c2ccc(O)cc2)cc1
The Kd of the first is 3.1-fold higher: 1110 pM for the first, 360 pM for the second. The second binds more tightly here.

Going from `CCN(CC)CCOc1ccc(/C(=C(/C#N)c2ccccc2)c2ccc(O)cc2)cc1` to `CCN(CC)CCOc1ccc(/C(=C(\c2ccccc2)[N+](=O)[O-])c2ccc(O)cc2)cc1`, the Kd falls from 1110 pM to 560 pM (2-fold). The second binds more tightly here.
